Here are results for three molecules from article PMC4484790 (Virology, 2014).

What is called AUC(0-t) is exposure summed from dosing to a finite time, without extrapolation to infinity. A low value points to low exposure. A word on the Tmax: it is the time from dosing to the highest level. Broadly, the Cmax is the highest concentration seen after dosing. The term half-life denotes the time needed for the level to fall by half in the phase considered. Read a low half-life as fast loss.

Series [1] can be described thus: PK of orally administered TFV. The format is in vivo.
A short description of series [2]: in vivo. Details: species or system non-humanized mice. The following applies: female, mouse, po, 61.5 mg/kg.
For series [3], the system named is HIV. The following applies: Partners PrEP study; oral; serodiscordant couples; ref Baeten et al., 2012; cited from earlier work.
Series [4] deals with HIV. The following applies: hu-mice; oral administration at allometric dosing levels; ref Neff et al., 2010; cited from earlier work.
Setting [5] is: female, BALB/c Rag1−/− or Rag2−/−γc−/− (humanized, Hu-HSC RAG-hu), mouse, intestinal tissue, po, 61.5 mg/kg.
Where [6] appears, read: female, BALB/c Rag1−/− or Rag2−/−γc−/− (humanized, Hu-HSC RAG-hu), mouse, plasma, po, 61.5 mg/kg.
Where [7] appears, read: female, BALB/c Rag1−/− or Rag2−/−γc−/− (humanized, Hu-HSC RAG-hu), mouse, rectal tissue, po, 61.5 mg/kg.
Where [8] appears, read: female, BALB/c Rag1−/− or Rag2−/−γc−/− (humanized, Hu-HSC RAG-hu), mouse, vaginal tissue, po, 61.5 mg/kg.

For `CC(Cn1cnc2c(N)ncnc21)OCP(=O)(O)OP(=O)(O)OP(=O)(O)O` (stereo in doubt) [TFV-DP, Tenofovir Diphosphate], in series [1] (hu-mice, TFV oral 61.5 mg/kg x 5 days), the “AUC24h intestinal:rectal tissue ratio” value is reported as 2.45.
Turning to `C[C@H](Cn1cnc2c(N)ncnc21)OCP(=O)(O)O` [TFV, Tenofovir], the exposure AUC(0-t) in series [2] was 17300 ng·h/mL; in series [1] (female, BALB/c Rag1−/− or Rag2−/−γc−/− (humanized, Hu-HSC RAG-hu), mouse, in vivo, po, 61.5 mg/kg), 11300 ng·h/mL. Further, the time of peak concentration (Tmax) came out at 8 h in series [2]; 2 h in series [1] (setting [5]); 2 h in series [1] (setting [6]); 2 h in series [1] (setting [7]); 2 h in series [1] (setting [8]). The Cmax in series [2] (Cmax (median)) worked out at 1550 ng/mL; in series [1] (female, BALB/c Rag1−/− or Rag2−/−γc−/− (humanized, Hu-HSC RAG-hu), mouse, in vivo, po, 61.5 mg/kg, Cmax (median)) it was 1990 ng/mL. In addition, the “reduction in HIV-1 incidence” value in series [3] was 67%. Also, the half-life was 13.9 h in series [1] (setting [5]), 17 h in series [1] (setting [6]), 13.5 h in series [1] (setting [7]) and 9 h in series [1] (setting [8]).
In the case of Maraviroc [MVC], in series [4], the “protection against HIV vaginal challenge” value is “fully protective”.
